Here are results for 1 substance from patent US20080064040A1, “Monitoring gene silencing and annotating gene function in living cells” (Odyssey Thera, Inc., priority 2003, published 2008).

The subject of this experiment is phosphorylation of the ERK1 and ERK2 protein kinases. The experiment can be described thus: Phospho-ERK (T202/Tyr204) immunofluorescence in EGF-treated HEK 293T cells. Conditions: EGF vs unstimulated cells, FIG. 11B. It counts as cell-based, human. The protocol: Cells are transfected with a collection of siRNAs, and cultured for 48 hours before fixing. Fixed cells are probed with antibodies that specifically recognize the MAPK/ERK protein kinases only when they are phosphorylated on Threonine 202 and Tyrosine 204 in the activation loop. […] Changes in the level and sub-cellular localization of phosphorylated proteins following treatment with an annotation reagent (here siRNA) indicates a functional connection between the annotation reagent and the target of interest. […] Here, 24 individual siRNA pools were transfected into human HEK cells, and their effects on the phosphorylation of the ERK1 and ERK2 protein kinases was assessed by immunofluorescence analysis.
Human HEK 293T cells were plated at 12,000 cells/well, and transfected with 40 ng of siRNA pools targeting the indicated proteins using Lipofectamine 2000 (Invitrogen, Carlsbad Calif.). 24 hours after transfection, cells were cultured in 0.25% serum for 24 hours, then treated with EGF (Sigma; 100 ng/ml) for 5 minutes prior to fixation. For immunofluorescence, cells were rinsed with PBS, fixed with 4% formaldehyde in PBS, and permeabilized using 0.25% Triton X-100. Non-specific immunoreactivity was blocked by incubating cells with 3% BSA in PBS. […] Automated fluorescence image acquisition was carried out using Discovery-1 (Universal Imaging/Molecular Devices).

Turning to “EGF: epidermal growth factor (Sigma), stimulus for ERK phosphorylation (NSDSECPLSHDGYCLHDGVCMYIEALDKYACNCVVGYIGERCQYRDLKWWELR; UniProt P01133 971-1023, looked up)”, the “level of phosphorylated ERK after growth factor treatment” value is recorded as “large increase in phosphorylated ERK”.
